Source: publication PMC6472029, “Steroids from the Deep-Sea-Derived Fungus Penicillium granulatum MCCC 3A00475 Induced Apoptosis via Retinoid X Receptor (RXR)-α Pathway” (Marine Drugs, 2019)
pKd: −log10 of the molar value.

Target: T1, RXRα (Homo sapiens, UniProt P19793)
T1 construct: gene RXRA; RXRα-LBD (N-terminal His-tagged)
T1 sequence (P19793 223-462 limits assumed): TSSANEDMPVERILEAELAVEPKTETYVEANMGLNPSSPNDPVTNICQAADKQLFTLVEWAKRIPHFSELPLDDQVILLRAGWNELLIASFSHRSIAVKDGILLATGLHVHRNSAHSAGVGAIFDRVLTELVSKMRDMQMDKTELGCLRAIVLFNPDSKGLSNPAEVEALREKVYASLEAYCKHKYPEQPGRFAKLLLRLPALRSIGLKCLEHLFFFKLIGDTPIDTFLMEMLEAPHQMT
Test: fluorescence quenching with purified RXRα-LBD
Type: binding

CC(=O)O[C@H]1C[C@H]2[C@H]3[C@H]([C@@H](O)C[C@]2(C)[C@H]1[C@H](C)C=C[C@H](C)C(C)C)[C@@]1(C)CC[C@H](O)CC1=C[C@@H]3O [compound 2, 16β-acetoxy-3β,7β,11β-trihydroxyergost-5,22-diene]
pKd: 4.86

CC(=O)O[C@H]1C[C@H]2[C@@H]3[C@@H](O)[C@@H](O)[C@H]4C[C@@H](O)CC[C@]4(C)[C@H]3[C@@H](O)C[C@]2(C)[C@H]1[C@H](C)/C=C/[C@H](C)C(C)C [compound 6, penicisteroid A]
pKd: 4.89
